Source: patent US20050288502A1, “Substituted heterocyclic compounds and methods of use” (priority 2004, published 2005)

System: TNF-α
Experiment: Lipopolysaccharide-activated THP1 cell TNF production assay (LPS induced TNF release)
Format: cell-based
Conditions: Homo sapiens, THP-1; THP1 cells, bacterial LPS, secreted TNF-α after 3 h at 37° C.
Protocol: Lipopolysaccharide-Activated THP1 Cell TNF Production Assay
THP1 cells are resuspended in fresh THP1 media (RPMI 1640, 10% heat-inactivated FBS, 1XPGS, 1XNEAA, plus 30 μM βME) at a concentration of 1E6/mL. One hundred microliters of cells per well are plated in a polystyrene 96-well tissue culture. One microgram per mL of bacterial LPS is prepared in THP1 media and is transferred to the wells. Test compounds are dissolved in 100% DMSO and are serially diluted 3 fold in a polypropylene 96-well microtiter plate (drug plate). HI control and LO control wells contain only DMSO. One microliter of test compound from the drug plate followed by 10 μL of LPS are transferred to the cell plate. The treated cells are induced to synthesize and secrete TNF-α at 37° C. for 3 h. Forty microliters of conditioned media are transferred to a 96-well polypropylene plate containing 110 μL of ECL buffer (50 mM Tris-HCl pH 8.0, 100 mM NaCl, 0.05% Tween 20, 0.05% NaN3 and 1% FBS) supplemented with 0.44 nM MAB610 monoclonal Ab (R&D Systems), 0.34 nM ruthenylated AF210NA polyclonal Ab (R&D Systems) and 44 μg/mL sheep anti-mouse M280 Dynabeads (Dynal). After a 2 h incubation at room temperature with shaking, the reaction is read on the ECL M8 Instrument (IGEN Inc.). A low voltage is applied to the ruthenylated TNF-α immune complexes, which in the presence of TPA (the active component in Origlo), results in a cyclical redox reaction generating light at […]. The amount of secreted TNF-α: in the presence of compound compared with that in the presence of DMSO vehicle alone (HI control) is calculated using the formula:% control (POC)=(cpd−average LO)/(average HI−average LO)*100. Data (consisting of POC and inhibitor concentration in μM) is fitted to a 4-parameter equation (y=A+((B−A)/(1+((x/C)ˆD))), where A is the minimum y (POC) value, B is the maximum y (POC), C is the x (cpd concentration) at the point of inflection and D is the slope factor) using a Levenburg-Marquardt non-linear regression algorithm.

Row | SMILES | IC50
1 | C[C@@H](Cc1cccc(S(=O)(=O)N(C)CCN(C)C)c1)Nc1nccc(N(C)c2nc(-c3ccccc3)cc3ncnn23)n1 | ≤ 20 µM
2 | C[C@@H](Nc1nccc(Nc2nc(-c3ccccc3)cc3ncnn23)n1)c1ccccc1 [(R)-N^2-(1-Phenyl-ethyl)-N^4-(7-phenyl-[1,2,4]triazolo[1,5-c]pyrimidine-5-yl)-pyrimidine-2,4-diamine] | ≤ 20 µM
3 | C[C@@H](Cc1cccc(CN)c1)Nc1nccc(N(C)c2nc(-c3ccccc3)cc3ncnn23)n1 [(S)-N^2-[2-(3-aminomethyl-phenyl)-1-methyl-ethyl]-N^4-methyl-N^4-(7-phenyl-[1,2,4]triazolo[1,5-c]pyrimidin-5-yl)-pyrimidine-2,4-diamine] | ≤ 20 µM
4 | C[C@@H](Cc1cccc(CO)c1)Nc1nccc(N(C)c2nc(-c3ccccc3)cc3ncnn23)n1 [(S)-[3-(2-{4-[methyl-(7-phenyl-[1,2,4]triazolo[1,5-c]pyrimidine-5-yl)-amino]-pyrimidin-2-ylamino}-propyl)-phenyl]-methanol] | ≤ 20 µM
5 | c1ccc(CCNc2nccc(Nc3nc(-c4ccccc4)cc4ncnn34)n2)cc1 [Example 4, N^2-phenethyl-N^4-(7-phenyl-[1,2,4]triazolo[1,5-c]pyrimidine-5-yl)-pyrimidine-2,4-diamine] | ≤ 20 µM
6 | C[C@H](Nc1nccc(Nc2nc(-c3ccccc3)cc3ncnn23)n1)c1ccccc1 [Example 7, (S)—N^2-(1-phenyl-ethyl)-N^4-(7-phenyl-[1,2,4]triazolo[1,5-c]pyrimidine-5-yl)-pyrimidine-2,4-diamine] | ≤ 20 µM
7 | C[C@@H](Cc1ccccc1)Nc1nccc(N(C)c2nc(-c3ccccc3)cc3ncnn23)n1 [Example 10, N^4-methyl-N^2-(S)-(1-methyl-2-phenyl-ethyl)-N^4-(7-phenyl-[1,2,4]triazolo[1,5-c]pyrimidine-5-yl)-pyrimidine-2,4-diamine] | ≤ 20 µM
8 | CC(Cc1ccccc1)Nc1nccc(Nc2nc(-c3ccccc3)cc3ncnn23)n1 (stereo not drawn) [N^2-(1-methyl-2-phenyl-ethyl)-N^4-(7-phenyl-[1,2,4]triazolo[1,5-c]pyrimidine-5-yl)-pyrimidine-2,4-diamine] | ≤ 20 µM
9 | CC(Cc1cccc(CN)c1)Nc1nccc(N(C)c2cc(-c3ccccc3)cc3ncnn23)n1 (stereo not drawn) [N^2-[2-(3-Aminomethyl-phenyl)-1-methyl-ethyl]-N^4-methyl-N^4-(7-phenyl-[1,2,4]triazolo[1,5-a]pyridin-5-yl)-pyrimidine-2,4-diamine] | ≤ 20 µM
10 | CC(Cc1cccc(CN)c1)Nc1nccc(N(C)c2nc(-c3ccccc3)cc3ncnn23)n1 (stereo not drawn) [N^2-[2-(3-aminomethyl-phenyl)-1-methyl-ethyl]-N^4-methyl-N^4-(7phenyl-[1,2,4]triazolo[1,5-c]pyrimidin-5-yl)-pyrimidine-2,4-diamine] | ≤ 20 µM
11 | CC(Cc1cccc(C(C)N)c1)Nc1nccc(N(C)c2nc(-c3ccccc3)cc3ncnn23)n1 (stereo not drawn) [N^2-{2-[3-(1-amino-ethyl)-phenyl]-1-methyl-ethyl}-N^4-methyl-N^4-(7-phenyl-[1,2,4]triazolo[1,5-c]pyrimidine-5-yl)-pyrimidine-2,4-diamine] | ≤ 20 µM
12 | CC(Cc1cccc(CO)c1)Nc1nccc(N(C)c2nc(-c3ccccc3)cc3ncnn23)n1 (stereo not drawn) [[3-(2-{4-[methyl-(7-phenyl-[1,2,4]triazolo[1,5-c]pyrimidine-5-yl)-amino]-pyrimidin-2-ylamino}-propyl)-phenyl]-methanol] | ≤ 20 µM

Continued, values first:

Row | IC50 | SMILES
13 | ≤ 20 µM | C[C@@H](Cc1cccc(S(N)(=O)=O)c1)Nc1nccc(N(C)c2nc(-c3ccccc3)cc3ncnn23)n1
14 | ≤ 20 µM | Cc1cc(N(C)c2nc(-c3ccccc3)cc3ncnn23)nc(N[C@@H](C)Cc2cccc(CN)c2)n1
15 | ≤ 20 µM | CN(c1ccnc(NC2CCN(C(=O)OC(C)(C)C)CC2)n1)c1nc(-c2ccccc2)cc2ncnn12 [4-{4-[methyl-(7-phenyl-[1,2,4]triazolo[1,5-c]pyrimidin-5-yl)-amino]-pyrimidin-2-ylamino}-piperidine-1-carboxylic acid tert-butyl ester]
16 | ≤ 20 µM | Cc1cc(N(C)c2nc(-c3ccccc3)cc3ncnn23)nc(N[C@@H](C)Cc2cccc([C@@H](C)N)c2)n1 [Example 35]
17 | ≤ 20 µM | CC(Cc1cccc(CN)c1)Nc1nccc(N(C)c2nc(-c3ccccc3)cc3nccn23)n1 (stereo not drawn) [N2-[2-(3-Aminomethyl-phenyl)-1-methyl-ethyl]-N4-methyl-N4-(7-phenyl-imidazo[1,2-c]pyrimidin-5-yl)-pyrimidine-2,4-diamine]
18 | ≤ 20 µM | CC(Cc1cccc(CO)c1)Nc1nccc(N(C)c2nc(-c3ccccc3)cc3nccn23)n1 (stereo not drawn) [[3-(2-{4-[Methyl-(7-phenyl-imidazo[1,2-c]pyrimidin-5-yl)-amino]-pyrimidin-2-ylamino}-propyl)-phenyl]-methanol]
